Laboratory results as given in the NIST ThermoML archive (doi:10.1021/acs.jced.8b01097).

Test: xn = mol fraction of the nth substance listed
Conditions: 85 kPa, Liquid; for viscosity: Concentric cylinders viscometry; for mass density: Vibrating tube method

CCC(C)O (centres undefined) [butan-2-ol] + CC(C)O
Conditions | mass density [kg/m3] | viscosity [mPa·s]
293.15 K, x1 = 0.0807 | 787.1 | 2.497
293.15 K, x1 = 0.1619 | 789.2 | 2.584
293.15 K, x1 = 0.2385 | 791 | 2.674
293.15 K, x1 = 0.3492 | 793.6 | 2.814
293.15 K, x1 = 0.4386 | 795.7 | 2.932
293.15 K, x1 = 0.56 | 798.3 | 3.097
293.15 K, x1 = 0.6489 | 800 | 3.221
293.15 K, x1 = 0.7402 | 801.8 | 3.352
293.15 K, x1 = 0.8494 | 803.7 | 3.511
293.15 K, x1 = 0.9403 | 805.3 | 3.648
293.15 K, x1 = 1 | 806.2 | 3.743
298.15 K, x1 = 0.0807 | 782.9 | 2.146
298.15 K, x1 = 0.1619 | 785 | 2.211
298.15 K, x1 = 0.2385 | 786.9 | 2.282
298.15 K, x1 = 0.3492 | 789.5 | 2.391
298.15 K, x1 = 0.4386 | 791.5 | 2.481
298.15 K, x1 = 0.56 | 794.1 | 2.607
298.15 K, x1 = 0.6489 | 795.9 | 2.702
298.15 K, x1 = 0.7402 | 797.6 | 2.801
298.15 K, x1 = 0.8494 | 799.6 | 2.923
298.15 K, x1 = 0.9403 | 801.1 | 3.028
298.15 K, x1 = 1 | 802 | 3.101
303.15 K, x1 = 0.0807 | 778.7 | 1.851
303.15 K, x1 = 0.1619 | 780.8 | 1.901
303.15 K, x1 = 0.2385 | 782.7 | 1.955
303.15 K, x1 = 0.3492 | 785.3 | 2.038
303.15 K, x1 = 0.4386 | 787.4 | 2.107
303.15 K, x1 = 0.56 | 790 | 2.204
303.15 K, x1 = 0.6489 | 791.8 | 2.276
303.15 K, x1 = 0.7402 | 793.5 | 2.352
303.15 K, x1 = 0.8494 | 795.5 | 2.444
303.15 K, x1 = 0.9403 | 797 | 2.524
303.15 K, x1 = 1 | 797.9 | 2.579
308.15 K, x1 = 0.0807 | 774.4 | 1.603
308.15 K, x1 = 0.1619 | 776.5 | 1.643
308.15 K, x1 = 0.2385 | 778.5 | 1.684
308.15 K, x1 = 0.3492 | 781.1 | 1.747
308.15 K, x1 = 0.4386 | 783.1 | 1.801
308.15 K, x1 = 0.56 | 785.7 | 1.876
308.15 K, x1 = 0.6489 | 787.5 | 1.932
308.15 K, x1 = 0.7402 | 789.3 | 1.991
308.15 K, x1 = 0.8494 | 791.2 | 2.062
308.15 K, x1 = 0.9403 | 792.7 | 2.121
308.15 K, x1 = 1 | 793.6 | 2.162
313.15 K, x1 = 0.0807 | 769.9 | 1.397
313.15 K, x1 = 0.1619 | 772.1 | 1.427
313.15 K, x1 = 0.2385 | 774 | 1.459
313.15 K, x1 = 0.3492 | 776.7 | 1.508
313.15 K, x1 = 0.4386 | 778.7 | 1.549
313.15 K, x1 = 0.56 | 781.3 | 1.608
313.15 K, x1 = 0.6489 | 783.1 | 1.652
313.15 K, x1 = 0.7402 | 784.9 | 1.697
313.15 K, x1 = 0.8494 | 786.8 | 1.751
313.15 K, x1 = 0.9403 | 788.4 | 1.798
313.15 K, x1 = 1 | 789.2 | 1.828
318.15 K, x1 = 0.0807 | 765.5 | 1.221
318.15 K, x1 = 0.1619 | 767.6 | 1.246
318.15 K, x1 = 0.2385 | 769.6 | 1.271
318.15 K, x1 = 0.3492 | 772.2 | 1.31
318.15 K, x1 = 0.4386 | 774.3 | 1.342
318.15 K, x1 = 0.56 | 776.9 | 1.388
318.15 K, x1 = 0.6489 | 778.7 | 1.422
318.15 K, x1 = 0.7402 | 780.4 | 1.457
318.15 K, x1 = 0.8494 | 782.4 | 1.5
318.15 K, x1 = 0.9403 | 783.9 | 1.536
318.15 K, x1 = 1 | 784.7 | 1.559
323.15 K, x1 = 0.0807 | 760.9 | 1.072
323.15 K, x1 = 0.1619 | 763.1 | 1.093
323.15 K, x1 = 0.2385 | 765 | 1.113
323.15 K, x1 = 0.3492 | 767.7 | 1.144
323.15 K, x1 = 0.4386 | 769.7 | 1.169
323.15 K, x1 = 0.56 | 772.4 | 1.205
323.15 K, x1 = 0.6489 | 774.2 | 1.231
323.15 K, x1 = 0.7402 | 775.9 | 1.258
323.15 K, x1 = 0.8494 | 777.9 | 1.291
323.15 K, x1 = 0.9403 | 779.4 | 1.318
323.15 K, x1 = 1 | 780.2 | 1.318
